Measurements reported in the NIST ThermoML archive (doi:10.1021/acs.jced.9b00484).

Assay: Boiling temperature at pressure P
Details: Liquid, Ebulliometric method (Recirculating still)

ClCCCl [1,2-dichloroethane]
Details | Boiling temperature at pressure P [°C]
60.01 kPa | 67.30
66.68 kPa | 70.70
73.35 kPa | 73.40
80.02 kPa | 76.30
86.69 kPa | 78.90
101.35 kPa | 84.10
